For assay [1], the system named is HCT116 MTAP null cells. In words: HCT116 MTAP null cell line proliferation (CellTiter-Glo cell viability, 6 days). Type of assay: cell-based. To be noted: read-out: HCT-116 MTAP null IC50. An outline of the steps: (§1)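 Isogenic HCT116 pair (parent and MTAP double-allele knockout) in RPMI 1640 + 10% FBS, exposed 6 days to compound: 8–9-point 1:3 dilutions from 1 or 10 μM top, or 22-point 1:2 dilutions from 10 or 50 μM top. CellTiter-Glo luminescence; IC50 from sigmoidal fit (Hill −1) or 4-parameter logistic.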

Assay [2] has as its system HCT116 WT cells. The assay is described as follows: HCT116 WT cell line proliferation (CellTiter-Glo cell viability, 6 days). Type of assay: cell-based. Particulars: read-out: HCT-116 WT IC50. An outline of the steps:
as §1

[3] abbreviates: HCT116-MTAP null, 144 h, HCT116 MTAP null cells, 6 days of treatment, CellTiter-Glo cell viability.
The mark [4] stands for this setting: Homo sapiens, HCT-116, 144 h, HCT116 WT (parent) cells, 6 days of treatment, CellTiter-Glo cell viability.
Where [5] appears, read: HCT116 MTAP null cells, 6 days of treatment, CellTiter-Glo cell viability.
The mark [6] stands for this setting: HCT116 WT (parent) cells, 6 days of treatment, CellTiter-Glo cell viability.

Like-named read-outs stand apart in the source and are kept apart here.

On to `Cn1ncc2c(N)nc3cc(F)c(C(=O)N4CCOC[C@@H]4c4ccc(C(F)(F)F)cn4)cc3c21` [Example 558, (4-amino-7-fluoro-1-methyl-1H-pyrazolo[4,3-c]quinolin-8-yl)((3S)-3-(5-(trifluoromethyl)-2-pyridinyl)-4-morpholinyl)methanone], for which the IC50 was determined as 17 nM in assay [1] (setting [3]) and 630 nM in assay [2] (setting [4]).

Take `Cn1ncc2c(N)nc3cc(F)c(C(=O)N4CCOC[C@H]4c4ccc(C(F)(F)F)cn4)cc3c21` [Example 559, (4-amino-7-fluoro-1-methyl-1H-pyrazolo[4,3-c]quinolin-8-yl)((3R)-3-(5-(trifluoromethyl)-2-pyridinyl)-4-morpholinyl)methanone]: the IC50 in assay [1] (setting [3]) amounted to 575 nM; in assay [2] (setting [4]), 12000 nM.

On to `Cn1ncc2c(N)nc3cc(F)c(C(=O)N4CCOC[C@@H]4c4ccc(C(F)(F)F)nn4)cc3c21` [Example 560, (4-amino-7-fluoro-1-methyl-1H-pyrazolo[4,3-c]quinolin-8-yl)((3S)-3-(6-(trifluoromethyl)-3-pyridazinyl)-4-morpholinyl)methanone], for which the IC50 in assay [1] (setting [3]) stood at 42 nM; in assay [2] (setting [4]), 2880 nM.

In the case of `C[C@@H]1COC[C@H](c2ccc(OC(F)F)nn2)N1C(=O)c1cc2c(cc1F)nc(N)c1cnn(C)c12` [Example 561, (4-amino-7-fluoro-1-methyl-1H-pyrazolo[4,3-c]quinolin-8-yl)((3S,5R)-3-(6-(difluoromethoxy)-3-pyridazinyl)-5-methyl-4-morpholinyl)methanone], the IC50 in assay [1] (setting [3]) turned out to be 6 nM; in assay [2] (setting [4]), 120 nM.

On to `C[C@@H]1COC[C@H](c2ccc(OC(F)F)nn2)N1C(=O)c1cc2c3c(c(N)nc2cc1F)[C@@H](C)OC3` [Example 562, ((3R)-4-amino-7-fluoro-3-methyl-1,3-dihydrofuro[3,4-c]quinolin-8-yl)((3S,5R)-3-(6-(difluoromethoxy)-3-pyridazinyl)-5-methyl-4-morpholinyl)methanone], for which the IC50 in assay [1] (setting [3]) worked out at 6 nM; in assay [2] (setting [4]) it was 84 nM.

Take `C[C@@H]1COC[C@H](c2ccc(OCC(F)(F)F)nn2)N1C(=O)c1cc2c3c(c(N)nc2cn1)COC3` [Example 563, (4-amino-1,3-dihydrofuro[3,4-c][1,7]naphthyridin-8-yl)((3R,5S)-3-methyl-5-(6-(2,2,2-trifluoroethoxy)-3-pyridazinyl)-4-morpholinyl)methanone]: the IC50 in assay [1] (setting [3]) was found to be 32 nM; in assay [2] (setting [4]) it was 1060 nM.

Take `C[C@@H]1COC[C@H](c2ccc(OCCC(F)(F)F)nn2)N1C(=O)c1cc2c3c(c(N)nc2cn1)COC3` [Example 564, (4-amino-1,3-dihydrofuro[3,4-c][1,7]naphthyridin-8-yl)((3R,5S)-3-methyl-5-(6-(3,3,3-trifluoropropoxy)-3-pyridazinyl)-4-morpholinyl)methanone]: the IC50 in assay [1] (setting [3]) turned out to be 28 nM; in assay [2] (setting [4]), 708 nM.

Take `C[C@@H]1COC[C@H](c2ccc(OCCC(F)(F)F)nn2)N1C(=O)c1cc2c3c(c(N)nc2cc1F)[C@@H](C)OC3` [Example 565, ((3R)-4-amino-7-fluoro-3-methyl-1,3-dihydrofuro[3,4-c]quinolin-8-yl)((3R,5S)-3-methyl-5-(6-(3,3,3-trifluoropropoxy)-3-pyridazinyl)-4-morpholinyl)methanone]: the values for the IC50 in assay [1] (setting [3]) and in assay [2] (setting [4]) were 6 nM and 72 nM, respectively.

With `Nc1nc2cnc(C(=O)N3CC[S+]([O-])C[C@@H]3c3ccc(C(F)(F)F)cc3)cc2c2c1COC2` (stereo partly drawn) [Example 623, (4-Amino-1,3-dihydrofuro[3,4-c][1,7]naphthyridin-8-yl)((3S)-1-oxido-3-(4-(trifluoromethyl)phenyl)thiomorpholino)methanone], the IC50 in assay [1] (HCT116-MTAP null, 144 h) came to 843 nM; in assay [2] (Homo sapiens, HCT-116, 144 h), 25700 nM.

As for `CC(=O)N1CCN(C(=O)c2cc3c4c(c(N)nc3cn2)COC4)[C@@H](c2ccc(C(F)(F)F)cc2)C1` [Example 624, (S)-1-(4-(4-Amino-1,3-dihydrofuro[3,4-c][1,7]naphthyridine-8-carbonyl)-3-(4-(trifluoromethyl)phenyl)piperazin-1-yl)ethan-1-one], the IC50 in assay [1] (setting [3]) turned out to be 343 nM; in assay [2] (setting [4]), 8570 nM.

Regarding `Nc1nc2ccc(C(=S)N3CCOC[C@@H]3c3ccc(C(F)(F)F)cc3)cc2c2c1COC2` [Example 625, (S)-(4-amino-1,3-dihydrofuro[3,4-c]quinolin-8-yl)(3-(4-(trifluoromethyl)phenyl)morpholino)methanethione], the IC50 in assay [1] (setting [3]) is 882 nM; in assay [2] (setting [4]), 7260 nM.

With `Nc1nc2cnc(C(=S)N3CCOC[C@@H]3c3ccc(C(F)(F)F)cc3)cc2c2c1COC2` [Example 626, (4-amino-1,3-dihydrofuro[3,4-c][1,7]naphthyridin-8-yl)((3S)-3-(4-(trifluoromethyl)phenyl)-4-morpholinyl)methanethione], the figures for the IC50 in assay [1] (setting [3]) and in assay [2] (setting [4]) were 394 nM and 12900 nM, respectively.

Regarding “(4-amino-1-methyl-1H- pyrazolo[4,3- c][1,7]naphthyridin-8- yl)((3R)-3-(4- (trifluoromethyl)benzyl)-1- pyrrolidinyl)methanone and (4-amino-1-methyl-1H- pyrazolo[4,3- c][1,7]naphthyridin-8- yl)((3S)-3-(4- (trifluoromethyl)benzyl)-1- pyrrolidinyl)methanone [Example 432]”, the IC50 in assay [1] (setting [5]) came out at 616 nM; in assay [2] (setting [6]) it was 22700 nM.

Turning to “(4-amino-1-methyl-1H- pyrazolo[4,3- c][1,7]naphthyridin-8- yl)((3R)-3-(4- (trifluoromethyl)phenoxy)-1- pyrrolidinyl)methanone and (4-amino-1-methyl-1H- pyrazolo[4,3- c][1,7]naphthyridin-8- yl)((3S)-3-(4- (trifluoromethyl)phenoxy)-1- pyrrolidinyl)methanone [Example 433]”, the values for the IC50 in assay [1] (setting [5]) and in assay [2] (setting [6]) were 421 nM and 14600 nM, respectively.

Regarding “(4-amino-7-chloro-1,3- dihydrofuro[3,4-c]quinolin-8- yl)((3R,4S)-3-ethyl-4-(4- methylphenyl)-1- pyrrolidinyl)methanone and (4-amino-7-chloro-1,3- dihydrofuro[3,4-c]quinolin-8- yl)((3S,4R)-3-ethyl-4-(4- methylphenyl)-1- pyrrolidinyl)methanone [Example 424]”, the half-inhibitory concentration (IC50) in assay [1] (setting [5]) is 345 nM; in assay [2] (setting [6]) it was 5690 nM.

As to “(4-amino-7-fluoro-1,3- dihydrofuro[3,4-c]quinolin-8- yl)((3R)-3-hydroxy-3-(4- (trifluoromethyl)phenyl)-1- pyrrolidinyl)methanone and (4-amino-7-fluoro-1,3- dihydrofuro[3,4-c]quinolin-8- yl)((3S)-3-hydroxy-3-(4- (trifluoromethyl)phenyl)-1- pyrrolidinyl)methanone [Example 441]”, the IC50 was determined as 683 nM in assay [1] (setting [5]) and 15600 nM in assay [2] (setting [6]).

As for “(4-amino-7-fluoro-1-methyl- 1H-pyrazolo[4,3-c]quinolin- 8-yl)((4R)-3,3-dimethyl-4-(4- (trifluoromethyl)phenyl)-1- pyrrolidinyl)methanone and (4-amino-7-fluoro-1-methyl- 1H-pyrazolo[4,3-c]quinolin- 8-yl)((4S)-3,3-dimethyl-4-(4- (trifluoromethyl)phenyl)-1- pyrrolidinyl)methanone [Example 445]”, the results for the IC50 in assay [1] (setting [5]) and in assay [2] (setting [6]) were 11 nM and 240 nM, respectively.
